Experimental findings from ChEMBL document CHEMBL1137322, “Arylmethyloxyphenyl derivatives: small molecules displaying P-glycoprotein inhibition” (J Med Chem, 2006) are described below.

Activity calls are given as the source filed them. The rule behind the calls is not given here.

Data set [1] concerns Caco-2. Briefly: Inhibition of vinblastine-induced ATPase activation in Caco-2 cells. It counts as functional.
Data set [2] concerns Caco-2. The experiment in a line: Inhibition of ATPase measured as increase in ATP level in Caco-2 cells at 20 uM relative to vinblastine after 120 mins. It counts as functional, Homo sapiens. The arrangement: scale not given: the % may be the effect or the level left.
Data set [3] addresses T1, ATP-dependent translocase ABCB1 (Homo sapiens, UniProt P08183). Briefly: Inhibition of Pgp measured as doxorubicin accumulation in MCF7/Adr cells at 20 nM by flow cytometry. It counts as functional, cell-based. As to conditions: nci/adr-res, 0.02 µM.
Data set [4] concerns the target T1, ATP-dependent translocase ABCB1. The experiment in a line: Inhibition of Pgp measured as inhibition of [3H]vinblastine basolateral to apical transport in Caco-2 cells. Format: functional, cell-based. In general terms: Caco-2 monolayers are a common model of the intestinal barrier.
The next data set has as its target D(2) dopamine receptor (Homo sapiens, UniProt P14416). Briefly: Binding affinity to D2 receptor.
In data set [5] the target is T2, 5-hydroxytryptamine receptor 1A (Homo sapiens, UniProt P08908).
T2 sequence (P08908 whole entry): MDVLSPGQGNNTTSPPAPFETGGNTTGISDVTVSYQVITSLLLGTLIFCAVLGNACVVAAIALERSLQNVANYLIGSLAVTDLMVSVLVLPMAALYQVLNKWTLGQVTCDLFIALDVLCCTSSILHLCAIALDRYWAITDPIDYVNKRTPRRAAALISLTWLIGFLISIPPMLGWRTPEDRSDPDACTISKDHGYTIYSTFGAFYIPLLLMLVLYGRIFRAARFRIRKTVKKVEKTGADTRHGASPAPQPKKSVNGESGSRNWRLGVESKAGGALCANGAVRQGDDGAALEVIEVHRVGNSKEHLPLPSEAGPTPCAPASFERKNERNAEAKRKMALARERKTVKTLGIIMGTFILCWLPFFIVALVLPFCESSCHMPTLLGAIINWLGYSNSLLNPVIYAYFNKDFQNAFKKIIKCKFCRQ
The experiment in a line: Binding affinity to 5HT1A receptor.

Another data set concerns NCI/ADR-RES. Briefly: Cytotoxicity against MCF7/Adr cells at 100 uM after 48 hrs. Format: functional, Homo sapiens.
For data set [6], the system named is Caco-2. Briefly: Inhibition of ATPase measured as ATP availability in Caco-2 cells at 20 nM after 90 mins relative to control. Format: functional, Homo sapiens. More on the design: scale not given: the % may be the effect or the level left.
Data set [7] concerns Caco-2. The experiment in a line: Inhibition of ATPase measured as ATP availability in Caco-2 cells at 20 nM after 120 mins relative to control. Format: functional, Homo sapiens. More on the design: scale not given: the % may be the effect or the level left.
The subject of data set [8] is Caco-2. The experiment in a line: Inhibition of ATPase measured as ATP availability in Caco-2 cells at 20 nM after 60 mins relative to control. Format: functional, Homo sapiens. More on the design: scale not given: the % may be the effect or the level left.

In general, EC50 refers to the concentration needed to bring the measured effect to its halfway point. The term Ki denotes the dissociation constant of the complex between target and ligand, obtained from inhibition or displacement.

T1 sequence (P08183 whole entry): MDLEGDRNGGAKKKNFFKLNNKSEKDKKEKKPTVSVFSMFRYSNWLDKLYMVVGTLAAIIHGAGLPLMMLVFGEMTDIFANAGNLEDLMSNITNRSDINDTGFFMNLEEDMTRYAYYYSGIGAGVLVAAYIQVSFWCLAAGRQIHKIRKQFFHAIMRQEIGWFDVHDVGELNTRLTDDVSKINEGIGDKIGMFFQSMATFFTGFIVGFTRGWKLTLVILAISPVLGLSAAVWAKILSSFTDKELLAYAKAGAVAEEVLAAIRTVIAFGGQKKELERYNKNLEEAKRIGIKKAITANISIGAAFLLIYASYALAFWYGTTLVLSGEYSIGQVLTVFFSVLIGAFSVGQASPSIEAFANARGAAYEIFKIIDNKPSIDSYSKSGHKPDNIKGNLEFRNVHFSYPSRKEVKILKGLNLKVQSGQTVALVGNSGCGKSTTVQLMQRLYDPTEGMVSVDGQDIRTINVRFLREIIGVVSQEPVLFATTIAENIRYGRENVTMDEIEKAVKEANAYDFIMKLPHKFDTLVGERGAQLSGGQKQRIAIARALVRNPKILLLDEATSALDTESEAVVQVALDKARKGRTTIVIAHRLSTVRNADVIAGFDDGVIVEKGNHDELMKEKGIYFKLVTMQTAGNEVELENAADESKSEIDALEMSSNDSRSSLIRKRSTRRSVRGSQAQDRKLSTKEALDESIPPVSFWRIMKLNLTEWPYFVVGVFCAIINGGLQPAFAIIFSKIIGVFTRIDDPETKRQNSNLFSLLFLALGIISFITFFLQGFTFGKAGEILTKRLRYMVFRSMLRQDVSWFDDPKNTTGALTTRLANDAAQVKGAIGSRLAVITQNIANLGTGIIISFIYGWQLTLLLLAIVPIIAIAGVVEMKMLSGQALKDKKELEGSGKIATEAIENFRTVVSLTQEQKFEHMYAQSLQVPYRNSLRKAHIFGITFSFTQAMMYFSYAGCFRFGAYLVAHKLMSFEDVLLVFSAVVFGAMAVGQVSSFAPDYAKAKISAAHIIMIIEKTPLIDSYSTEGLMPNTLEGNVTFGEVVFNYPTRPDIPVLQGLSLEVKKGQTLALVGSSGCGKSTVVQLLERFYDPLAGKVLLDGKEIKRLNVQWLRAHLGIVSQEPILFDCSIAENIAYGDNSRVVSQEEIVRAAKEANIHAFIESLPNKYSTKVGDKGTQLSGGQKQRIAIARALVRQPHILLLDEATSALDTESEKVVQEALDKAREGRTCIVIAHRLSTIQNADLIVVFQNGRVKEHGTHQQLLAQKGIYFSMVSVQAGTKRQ
Chain of D(2) dopamine receptor (P14416 whole entry): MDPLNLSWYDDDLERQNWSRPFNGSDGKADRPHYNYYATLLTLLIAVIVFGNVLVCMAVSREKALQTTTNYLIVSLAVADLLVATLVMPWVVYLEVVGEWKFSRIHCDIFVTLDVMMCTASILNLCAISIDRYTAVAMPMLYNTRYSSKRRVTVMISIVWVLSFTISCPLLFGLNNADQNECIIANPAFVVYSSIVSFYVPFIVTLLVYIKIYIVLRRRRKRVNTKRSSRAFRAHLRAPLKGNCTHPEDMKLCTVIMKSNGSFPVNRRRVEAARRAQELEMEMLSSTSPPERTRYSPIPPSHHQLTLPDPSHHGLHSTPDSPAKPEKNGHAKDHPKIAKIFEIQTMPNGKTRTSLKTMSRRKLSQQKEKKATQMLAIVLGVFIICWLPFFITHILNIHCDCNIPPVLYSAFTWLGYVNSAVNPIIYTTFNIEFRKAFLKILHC

Take `COc1cccc(CCc2ccccc2OCc2ccccn2)c1`: in the data set with Caco-2 [1] (Homo sapiens), the outcome was inactive. The Activity with Caco-2 [2] is reported as 41%; in [3], “Active”; with NCI/ADR-RES, 8%. In [4], this compound came in with an EC50 of 27.6 µM. Moreover, the Ki (on D(2) dopamine receptor; in data set [5]) was 5 µM throughout.
With `c1ccc(CCc2ccccc2OCc2ccccn2)cc1`, the result in the data set on Caco-2 [1] (Homo sapiens) was inactive. Moreover, the figures for the Activity with Caco-2 [2] and with NCI/ADR-RES were 15% and 8%, respectively. For the same compound, the EC50 in [4] stood at 100 µM. The Ki (at D(2) dopamine receptor; in data set [5]) was 5 µM in each case.
On to `c1ccc(CCc2ccccc2OCc2ccccc2)cc1`, for which the Activity came out at 50 µM with Caco-2 [1] and 8% with NCI/ADR-RES. The inhibitory constant (Ki) (on D(2) dopamine receptor; in data set [5]) was 5 µM each time.
Take `COc1cccc(CCc2ccccc2OCc2ccccc2)c1`: the result in the data set with Caco-2 [1] (Homo sapiens) was inactive. The Activity stood at 19% in the data set on Caco-2 [2] and 8% with NCI/ADR-RES. Besides, a half-maximal response in data set [4] (EC50) required 92.8 µM. In addition, the Ki (on D(2) dopamine receptor; in data set [5]) was 5 µM throughout.
Regarding `COc1cccc(CCc2ccccc2OCc2cccnc2)c1`, the Activity with Caco-2 [1] stood at 400 µM; in the data set with NCI/ADR-RES, 8%. Moreover, the inhibition constant (Ki) (at D(2) dopamine receptor; in data set [5]) was 5 µM each time.
Turning to `COc1ccc(CCN(C)CCCC(C#N)(c2ccc(OC)c(OC)c2)C(C)C)cc1OC` (centres undefined), in the data set with NCI/ADR-RES, the Activity worked out at 95%.
For `COc1cc2c(cc1OC)CN(CCc1ccc(NC(=O)c3cccc4c(=O)c5cccc(OC)c5[nH]c34)cc1)CC2`, the result with Caco-2 [1] (Homo sapiens) was inactive.
With `c1ccc(CCc2ccccc2OCc2cccnc2)cc1`, the values for the Activity with Caco-2 [1] and in the data set on NCI/ADR-RES were 100 µM and 8%, respectively. The same compound came in with a concentration giving a half-maximal response (EC50) in [4] of 125 µM. In addition, the Ki (on D(2) dopamine receptor; in data set [5]) was 5 µM in each case.
Turning to `CC[C@]1(O)C[C@@H]2CN(CCc3c([nH]c4ccccc34)[C@@](C(=O)OC)(c3cc4c(cc3OC)N(C)[C@H]3[C@@](O)(C(=O)OC)[C@H](OC(C)=O)[C@]5(CC)C=CCN6CC[C@]43[C@@H]65)C2)C1` [VINBLASTINE], the values for the Activity with Caco-2 [6], with Caco-2 [7] and in the data set with Caco-2 [8] were 72%, 42% and 81%, respectively.
As for `COc1cccc(CCc2ccccc2OCc2cccc(OC)c2)c1`, in the data set on Caco-2 [1] (Homo sapiens), the result was inactive. The Activity in the data set with Caco-2 [2] is 41%; in data set [3], “Active”; with NCI/ADR-RES it was 8%. Further, in [4], the half-maximal effective concentration (EC50) worked out at 17.2 µM. The Ki (at D(2) dopamine receptor; in [5]) was 5 µM throughout.
